We go through 20 compounds from patent publication US9187472B2 (AbbVie Inc., priority 2012, dated 2015).

The target of test [1] is NAMPT (human, recombinant, C-terminally His-tagged) (Homo sapiens, UniProt P43490). Briefly: Time-Resolved Fluorescence Resonance Energy Transfer (TR-FRET) Binding Assay of NAMPT. To be noted: without substrates; 6.8 nM NAMPT, 200 nM probe, 3 hours equilibration. A digest of the protocol: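 Competitive binding against an Oregon Green 488 tracer (200 nM), 6.8 nM His-tagged enzyme, 1 nM Tb antibody, 2% DMSO, 3 h at RT. IC50 derived from TR-FRET ratios.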
Sequence of NAMPT (human, recombinant, C-terminally His-tagged) (P43490 whole entry): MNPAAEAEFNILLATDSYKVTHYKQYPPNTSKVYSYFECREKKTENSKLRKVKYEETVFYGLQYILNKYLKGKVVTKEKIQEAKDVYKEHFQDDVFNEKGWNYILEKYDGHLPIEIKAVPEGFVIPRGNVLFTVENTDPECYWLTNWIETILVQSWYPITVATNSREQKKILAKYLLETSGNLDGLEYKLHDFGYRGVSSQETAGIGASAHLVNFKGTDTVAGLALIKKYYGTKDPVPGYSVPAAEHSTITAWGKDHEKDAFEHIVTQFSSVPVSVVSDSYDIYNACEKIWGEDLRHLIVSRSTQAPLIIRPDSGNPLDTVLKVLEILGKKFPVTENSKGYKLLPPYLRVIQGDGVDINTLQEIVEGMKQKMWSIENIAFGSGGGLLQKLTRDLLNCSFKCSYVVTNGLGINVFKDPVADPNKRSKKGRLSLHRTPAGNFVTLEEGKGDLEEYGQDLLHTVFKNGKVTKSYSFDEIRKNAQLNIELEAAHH

The target of the next test is NAMPT (Homo sapiens, UniProt P43490). In words: TR-FRET Binding Assay of NAMPT with PRPP. To be noted: with 200 μM PRPP and 2.5 mM ATP; 2 nM NAMPT, 2 nM probe, 16 hours equilibration. In short, it runs like this:
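Read-out is TR-FRET after a 16 h equilibration allowing possible compound modification by the enzyme. Final mix: 2 nM NAMPT, 2 nM probe, 1 nM Tb-anti-His antibody, 200 μM PRPP, 2.5 mM ATP, 2% DMSO.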

Another test concerns PC3 cells. Briefly: NAMPT Cell Proliferation Assay. To be noted: Homo sapiens, PC-3, 120 h, 5 days incubation, cell viability by Cell Titer Glo. The format is cell-based. A digest of the protocol:
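IC50 values derive from sigmoidal dose-response fits of percent inhibition of PC3 viability, measured by luminescence after 5 days of compound treatment. Cells (500/well, RPMI containing 10% heat-inactivated FBS) are allowed to attach overnight, and compounds are tested at 10-fold dilutions between 10 μM and 1×10^−5 μM.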
A general note: ATP-based viability assays read luminescence as a measure of living cells.

Molecules are shown by their SMILES.

Sequence of NAMPT (P43490 whole entry): as above

For orientation: IC50 means the concentration that inhibits the measured activity by half. In the case of `CC(C)(C)OC(=O)Nc1ccc(C(=O)NCc2ccn3ccnc3c2)cc1F` [Example 292, tert-butyl {2-fluoro-4-[(imidazo[1,2-a]pyridin-7-ylmethyl)carbamoyl]phenyl}carbamate], the IC50 in test [1] was 1540 nM; at NAMPT, 1.15 nM; in the test with PC3 cells it was 7220 nM.
As for `CC(=O)N1CCC(c2ccc(C(=O)NCc3ccn4ccnc4c3)s2)CC1` [Example 258, 5-(1-acetylpiperidin-4-yl)-N-(imidazo[1,2-a]pyridin-7-ylmethyl)thiophene-2-carboxamide], the IC50 in test [1] was determined as 113 nM; on NAMPT, 0.558 nM; in the test on PC3 cells, 32.5 nM.
For `CC(C)C(=O)N1CCC(c2ccc(C(=O)NCc3ccn4ccnc4c3)o2)CC1` [Example 736, N-(imidazo[1,2-a]pyridin-7-ylmethyl)-5-[1-(2-methylpropanoyl)piperidin-4-yl]furan-2-carboxamide], the IC50 in test [1] was 3090 nM; on NAMPT it was 0.73 nM; in the test with PC3 cells, 8360 nM.
Take `O=C(NCc1ccc2nccn2c1)c1ccc(C2=CCN(C(=O)CN3CCOCC3)CC2)cc1` [Example 92, N-(imidazo[1,2-a]pyridin-6-ylmethyl)-4-[1-(morpholin-4-ylacetyl)-1,2,3,6-tetrahydropyridin-4-yl]benzamide]: the values for the half-maximal inhibitory concentration (IC50) (in test [1]; on NAMPT; with PC3 cells) were 183 nM, 0.881 nM and 9.48 nM, respectively.
As to `O=C(CC1CCCC1)Nc1ccc(C(=O)NCc2ccc3nccn3c2)c(F)c1` [Example 462, 4-[(cyclopentylacetyl)amino]-2-fluoro-N-(imidazo[1,2-a]pyridin-6-ylmethyl)benzamide], the IC50 in test [1] came to 59.1 nM; on NAMPT it was 0.266 nM; in the test with PC3 cells, 7.43 nM.
Regarding `O=C(NCc1ccn2ccnc2c1)Nc1ccc(C2CCN(C(=O)CC3CCCO3)CC2)cc1` (stereo not drawn) [Example 225, 1-(imidazo[1,2-a]pyridin-7-ylmethyl)-3-{4-[1-(tetrahydrofuran-2-ylacetyl)piperidin-4-yl]phenyl}urea], the results for the concentration for half-maximal inhibition (IC50) (in test [1]; on NAMPT; with PC3 cells) were 155 nM, 0.673 nM and 9.27 nM, respectively.
For the compound `O=C(Nc1ccc(C(=O)NCC2CCS(=O)(=O)C2)cc1)Nc1ccc2nccn2c1` (stereo not drawn) [Example 24, N-[(1,1-dioxidotetrahydrothiophen-3-yl)methyl]-4-[(imidazo[1,2-a]pyridin-6-ylcarbamoyl)amino]benzamide], the half-maximal inhibitory concentration (IC50) was determined as 167 nM in test [1], 0.363 nM at NAMPT and 691 nM in the test on PC3 cells.
In the same order, the values of `O=C(NCc1ccn2ccnc2c1)c1ccc(OC2CCN(C(=O)c3ccccc3)CC2)cc1` [Example 415, 4-[(1-benzoylpiperidin-4-yl)oxy]-N-(imidazo[1,2-a]pyridin-7-ylmethyl)benzamide] are 1620 nM, 0.246 nM and 234 nM.
In the case of `CC(C)C(=O)N1CCC(c2ccc(C(=O)NCc3cn4ccnc4cn3)cc2)CC1` [Example 811, N-(imidazo[1,2-a]pyrazin-6-ylmethyl)-4-[1-(2-methylpropanoyl)piperidin-4-yl]benzamide], the concentration for half-maximal inhibition (IC50) in test [1] turned out to be 99.8 nM; at NAMPT it was 2.86 nM; in the test with PC3 cells, 11.4 nM.
`O=C(NCc1ccn2ccnc2c1)Nc1ccc(C2=CCN(C(=O)c3ccccc3)CC2)cc1F` [Example 438, 1-[4-(1-benzoyl-1,2,3,6-tetrahydropyridin-4-yl)-2-fluorophenyl]-3-(imidazo[1,2-a]pyridin-7-ylmethyl)urea]: the IC50 in test [1] worked out at 145 nM; at NAMPT it was 0.427 nM; in the test on PC3 cells, 42.5 nM.
`CC[C@H](C)C(=O)N1CC(c2ccc(NC(=O)NCc3ccn4ccnc4c3)cc2)C1` [Example 453, 1-(imidazo[1,2-a]pyridin-7-ylmethyl)-3-(4-{1-[(2S)-2-methylbutanoyl]azetidin-3-yl}phenyl)urea]: the IC50 was 152 nM in test [1], 0.258 nM at NAMPT and 9.21 nM with PC3 cells.
With `O=C(NCc1ccn2ccnc2c1)c1ccc(C2CCN(C(=O)C3CCCCC3)C2)cc1` (stereo not drawn) [Example 610, 4-[1-(cyclohexylcarbonyl)pyrrolidin-3-yl]-N-(imidazo[1,2-a]pyridin-7-ylmethyl)benzamide], the IC50 in test [1] worked out at 751 nM; at NAMPT, 0.762 nM; in the test on PC3 cells, 74.4 nM.
Regarding `O=C(NCc1ccc2nccn2c1)c1cnc(N2CCc3ccccc3CC2)s1` [Example 85, N-(imidazo[1,2-a]pyridin-6-ylmethyl)-2-(1,2,4,5-tetrahydro-3H-3-benzazepin-3-yl)-1,3-thiazole-5-carboxamide], the IC50 in test [1] is 4070 nM; on NAMPT it was 1.41 nM; in the test with PC3 cells, 2610 nM.
Turning to `Cc1ccc(C(=O)N2CCC(c3ccc(C(=O)NCc4ccn5ccnc5c4)cc3)CC2)cc1` [Example 500, N-(imidazo[1,2-a]pyridin-7-ylmethyl)-4-[1-(4-methylbenzoyl)piperidin-4-yl]benzamide], the IC50 in test [1] was found to be 181 nM; at NAMPT it was 0.169 nM; with PC3 cells, 21.7 nM.
With `CC(C)C(=O)N1CC(O)(c2ccc(C(=O)NCc3ccn4ccnc4c3)s2)C1` [Example 400, 5-[3-hydroxy-1-(2-methylpropanoyl)azetidin-3-yl]-N-(imidazo[1,2-a]pyridin-7-ylmethyl)thiophene-2-carboxamide], the figures for the half-inhibitory concentration (IC50) (in test [1]; on NAMPT; with PC3 cells) were 81.2 nM, 0.298 nM and 712 nM, respectively.
On to `O=C(NCc1ccn2ccnc2c1)Nc1ccc(NS(=O)(=O)c2ccccc2-c2ccccc2)cc1` [Example 303, N-(4-{[(imidazo[1,2-a]pyridin-7-ylmethyl)carbamoyl]amino}phenyl)biphenyl-2-sulfonamide], for which the half-maximal inhibitory concentration (IC50) stood at 9.99 nM in test [1], 0.169 nM on NAMPT and 1.79 nM in the test on PC3 cells.
In the same order, the values of `O=C(NCc1ccn2ccnc2c1)Nc1ccc(OC2CCN(C(=O)C3CCOCC3)CC2)cc1` [Example 450, 1-(imidazo[1,2-a]pyridin-7-ylmethyl)-3-(4-{[1-(tetrahydro-2H-pyran-4-ylcarbonyl)piperidin-4-yl]oxy}phenyl)urea] are 422 nM, 0.244 nM and 70.1 nM.
For the compound `CC(C)S(=O)(=O)N1CC(c2ccc(C(=O)NCc3ccn4ccnc4c3)cc2)C1` [Example 557, N-(imidazo[1,2-a]pyridin-7-ylmethyl)-4-[1-(propan-2-ylsulfonyl)azetidin-3-yl]benzamide], the IC50 amounted to 167 nM in test [1], 0.359 nM at NAMPT and 37.4 nM in the test on PC3 cells.
As for `O=C(NCc1ccn2ccnc2c1)Nc1ccc(C2CCN(C(=O)CCC(F)(F)F)CC2)cc1` [Example 714, 1-(imidazo[1,2-a]pyridin-7-ylmethyl)-3-{4-[1-(4,4,4-trifluorobutanoyl)piperidin-4-yl]phenyl}urea], the IC50 in test [1] came to 168 nM; at NAMPT, 0.991 nM; with PC3 cells, 17.4 nM.
As for `O=C(NCc1ccn2ccnc2c1)c1ccc(C2=CCN(C(=O)c3ccccc3F)CC2)o1` [Example 803, 5-[1-(2-fluorobenzoyl)-1,2,3,6-tetrahydropyridin-4-yl]-N-(imidazo[1,2-a]pyridin-7-ylmethyl)furan-2-carboxamide], the IC50 was determined as 314 nM in test [1], 1.01 nM at NAMPT and 17.6 nM with PC3 cells.
